Laboratory results as given in ChEMBL document CHEMBL1201862, “PubChem BioAssay data set” (2004).
Active and inactive are the calls of the source.

What was measured:
[1] = biological target: T1, Zinc finger protein mex-5 (Caenorhabditis elegans, UniProt Q9XUB2); test: MEX-5/TCR-2 RNA interaction inhibitors, dose response, biochemical, C. elegans, fluorescence polarization (AID 1960)
T1 sequence (Q9XUB2 whole entry): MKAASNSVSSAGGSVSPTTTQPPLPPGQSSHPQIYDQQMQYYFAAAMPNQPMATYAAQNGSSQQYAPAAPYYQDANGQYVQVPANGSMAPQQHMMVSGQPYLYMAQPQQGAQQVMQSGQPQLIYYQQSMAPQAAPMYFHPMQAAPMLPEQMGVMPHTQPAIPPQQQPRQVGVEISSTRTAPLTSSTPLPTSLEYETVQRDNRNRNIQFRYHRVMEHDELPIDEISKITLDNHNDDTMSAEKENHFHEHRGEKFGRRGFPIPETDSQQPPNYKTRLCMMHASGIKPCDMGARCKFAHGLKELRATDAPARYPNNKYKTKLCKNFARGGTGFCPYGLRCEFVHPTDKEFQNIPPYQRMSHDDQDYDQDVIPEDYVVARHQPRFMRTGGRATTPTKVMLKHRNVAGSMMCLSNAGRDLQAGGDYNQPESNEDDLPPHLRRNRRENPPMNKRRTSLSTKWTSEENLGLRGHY

[2] = biological target: T2, DNA repair and recombination protein RAD54-like (Homo sapiens, UniProt Q92698); test: inhibitors of human RAD54 branch migration, confirmation, biochemical, fluorescence, cherry-picked samples, dose series (AID 651657); assay type: functional
T2 sequence (Q92698 whole entry): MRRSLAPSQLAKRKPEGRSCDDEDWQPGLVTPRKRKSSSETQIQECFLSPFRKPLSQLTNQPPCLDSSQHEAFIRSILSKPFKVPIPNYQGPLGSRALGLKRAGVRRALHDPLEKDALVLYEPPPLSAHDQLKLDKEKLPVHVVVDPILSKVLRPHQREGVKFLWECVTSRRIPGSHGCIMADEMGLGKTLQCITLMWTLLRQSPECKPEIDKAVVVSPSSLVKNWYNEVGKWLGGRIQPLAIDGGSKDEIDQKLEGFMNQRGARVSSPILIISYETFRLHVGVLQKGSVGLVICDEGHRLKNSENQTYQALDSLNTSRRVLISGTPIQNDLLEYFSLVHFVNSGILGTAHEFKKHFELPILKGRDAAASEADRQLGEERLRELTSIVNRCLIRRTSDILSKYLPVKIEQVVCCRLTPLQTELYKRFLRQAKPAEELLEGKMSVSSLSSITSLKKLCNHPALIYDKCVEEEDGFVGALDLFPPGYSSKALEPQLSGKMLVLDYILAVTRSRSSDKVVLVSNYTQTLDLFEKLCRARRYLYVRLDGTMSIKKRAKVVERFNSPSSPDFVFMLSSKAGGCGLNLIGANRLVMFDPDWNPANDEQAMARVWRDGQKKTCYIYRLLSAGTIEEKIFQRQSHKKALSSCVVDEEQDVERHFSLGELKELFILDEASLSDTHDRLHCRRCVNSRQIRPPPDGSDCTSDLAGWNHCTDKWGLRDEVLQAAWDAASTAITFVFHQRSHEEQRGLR

[3] = biological target: Small ubiquitin-related modifier 2 (Homo sapiens, UniProt P61956); test: inhibitors of SUMO2 protein-protein interaction, dose response, selectivity assay for SUMO1 interaction inhibitor project, biochemical, FRET, human SUMO2, uHTS hits (AID 624384); assay type: functional; conditions: read-out: IC50_Mean
[4] = biological target: Small ubiquitin-related modifier 1 (Homo sapiens, UniProt P63165); test: inhibitors of SUMO1 peptide binding, dose response, biochemical, fluorescence polarization, uHTS hits (AID 624382); assay type: functional; conditions: read-out: IC50_Mean
[5] = biological target: T3, Tyrosine-protein phosphatase non-receptor type 22 (Homo sapiens, UniProt Q9Y2R2); test: LYP1 Fluorescent Assay using OMFP substrate for In Vitro dose response studies. [Related pubchem assays (depositor defined):AID1779, AID1784, AID435024]
T3 sequence (Q9Y2R2 whole entry): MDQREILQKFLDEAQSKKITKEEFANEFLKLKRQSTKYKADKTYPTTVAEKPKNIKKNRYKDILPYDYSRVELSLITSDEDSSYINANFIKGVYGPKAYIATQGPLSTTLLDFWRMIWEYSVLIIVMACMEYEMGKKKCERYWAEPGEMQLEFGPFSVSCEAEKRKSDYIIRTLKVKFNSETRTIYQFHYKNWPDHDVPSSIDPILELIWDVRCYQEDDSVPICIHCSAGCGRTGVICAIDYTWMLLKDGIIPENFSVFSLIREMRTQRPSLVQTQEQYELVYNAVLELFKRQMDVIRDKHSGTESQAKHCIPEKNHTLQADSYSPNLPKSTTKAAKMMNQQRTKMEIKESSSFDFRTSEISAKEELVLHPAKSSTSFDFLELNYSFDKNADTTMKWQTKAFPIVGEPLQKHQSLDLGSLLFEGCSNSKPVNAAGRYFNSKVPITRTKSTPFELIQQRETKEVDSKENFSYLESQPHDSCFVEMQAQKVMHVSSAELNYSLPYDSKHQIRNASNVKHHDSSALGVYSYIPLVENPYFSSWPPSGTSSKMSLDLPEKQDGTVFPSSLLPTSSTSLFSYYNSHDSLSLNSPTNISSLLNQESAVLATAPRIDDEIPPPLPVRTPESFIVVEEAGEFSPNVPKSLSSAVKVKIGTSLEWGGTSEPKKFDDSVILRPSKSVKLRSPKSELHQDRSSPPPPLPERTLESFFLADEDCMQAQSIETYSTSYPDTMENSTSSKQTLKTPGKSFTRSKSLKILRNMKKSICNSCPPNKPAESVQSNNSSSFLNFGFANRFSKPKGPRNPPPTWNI

[6] = biological target: T4, Type-1 angiotensin II receptor (Homo sapiens, UniProt P30556); test: AT1 receptor antagonists, dose response, selectivity assay for APJ receptor antagonist project, cell-based, uHTS hits (AID 463214); assay type: functional;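 also: antagonist potency against angiotensin II stimulated AT1 response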
T4 sequence (P30556 whole entry): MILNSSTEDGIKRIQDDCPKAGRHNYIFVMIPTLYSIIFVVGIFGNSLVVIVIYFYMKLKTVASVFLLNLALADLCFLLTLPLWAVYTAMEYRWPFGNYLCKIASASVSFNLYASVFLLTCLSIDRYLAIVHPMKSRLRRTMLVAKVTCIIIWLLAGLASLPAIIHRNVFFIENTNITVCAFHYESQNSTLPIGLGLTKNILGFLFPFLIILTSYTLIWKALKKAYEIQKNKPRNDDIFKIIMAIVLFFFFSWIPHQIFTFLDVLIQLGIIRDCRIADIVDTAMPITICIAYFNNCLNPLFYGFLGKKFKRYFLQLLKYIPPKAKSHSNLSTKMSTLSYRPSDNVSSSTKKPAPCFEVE

[7] = control 3'UTR Renilla luciferase suppression, dose response, counter-screen for Shn3 inhibitor project, cell-based, Clone20-Shn3RL, cherry-picked (AID 624133); assay type: functional
[8] = biological target: Kappa-type opioid receptor (Homo sapiens, UniProt P41145); assay type: functional
[9] = biological target: G-protein coupled receptor 55 (Homo sapiens, UniProt Q9Y2T6); test: GPR55 antagonists blocking LPI-driven arrestin recruitment, primary screen, imaging, U2OS, beta-arrestin-GFP, LPI agonist (AID 2013); assay type: functional;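 also: antagonist potency measured as reduced agonist-driven arrestin aggregation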
Sequence of G-protein coupled receptor 55 (Q9Y2T6 whole entry): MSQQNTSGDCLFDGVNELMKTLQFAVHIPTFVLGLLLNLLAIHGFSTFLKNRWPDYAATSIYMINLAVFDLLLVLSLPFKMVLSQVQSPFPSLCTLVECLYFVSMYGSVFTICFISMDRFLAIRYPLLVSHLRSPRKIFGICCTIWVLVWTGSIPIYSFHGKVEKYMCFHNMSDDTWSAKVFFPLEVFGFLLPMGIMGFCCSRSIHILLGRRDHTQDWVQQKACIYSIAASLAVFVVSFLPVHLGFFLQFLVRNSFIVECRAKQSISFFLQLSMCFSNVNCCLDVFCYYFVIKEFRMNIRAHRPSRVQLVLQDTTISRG

Sequence of Small ubiquitin-related modifier 1 (P63165 whole entry): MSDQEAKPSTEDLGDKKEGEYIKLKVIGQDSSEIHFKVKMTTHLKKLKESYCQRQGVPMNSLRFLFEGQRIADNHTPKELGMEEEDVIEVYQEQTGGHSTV
Sequence of Kappa-type opioid receptor (P41145 whole entry): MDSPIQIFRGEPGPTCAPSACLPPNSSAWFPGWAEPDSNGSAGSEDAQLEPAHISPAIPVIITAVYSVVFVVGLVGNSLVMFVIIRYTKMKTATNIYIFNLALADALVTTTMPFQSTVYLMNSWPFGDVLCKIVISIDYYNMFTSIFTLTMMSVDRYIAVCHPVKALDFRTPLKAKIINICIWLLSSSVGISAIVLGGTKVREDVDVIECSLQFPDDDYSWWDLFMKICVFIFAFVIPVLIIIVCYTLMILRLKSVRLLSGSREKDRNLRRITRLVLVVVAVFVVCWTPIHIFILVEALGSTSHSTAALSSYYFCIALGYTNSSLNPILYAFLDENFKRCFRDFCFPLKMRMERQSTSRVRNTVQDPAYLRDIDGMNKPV
Sequence of Small ubiquitin-related modifier 2 (P61956 whole entry): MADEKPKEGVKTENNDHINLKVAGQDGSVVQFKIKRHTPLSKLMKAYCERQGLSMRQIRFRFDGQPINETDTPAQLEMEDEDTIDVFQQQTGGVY

## CCN(CC)CCN1C(=O)c2cccc3cc(N)cc(c23)C1=O
[1]
  EC50: 5.13 µM (inconclusive)
[2]
  AC50: 8.83 µM (active)

## O=C(O)c1cccc(-n2cccc2/C=C2/NC(=O)N(c3ccc(Cl)cc3)C2=O)c1
[3]
  IC50: 0.752 µM (active)
[4]
  IC50: 21.3 µM (inactive)
[5]
  IC50: 4.54 µM (active)

## C=C1C(=O)O[C@@H]2C[C@@H](C)[C@@H]3C=CC(=O)[C@@]3(C)[C@@H](OC(=O)CC(=O)O[C@H]3[C@@H]4C(=C)C(=O)O[C@@H]4C[C@@H](C)[C@@H]4C=CC(=O)[C@]43C)[C@H]12
[6]
  IC50: 6.05 µM (active)
[7]
  AC50: 0.28 µM (active)
[8]
  IC50: 9.14 µM
[9]
  IC50: 1.85 µM (active)
